Key:
Assay type in all cases: in vivo
beet = experiment: Test Example 3: soil treatment, effect on crop; f: beet; conditions: soil treatment, treatment dosage 320 g/ha
How it was run: (§1)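 Crop and weed responses were judged three weeks after a uniform surface spray of the water-diluted emulsion at the given g/ha rate. Seeds sat beneath about 1.5 cm of sterilized diluvial soil, and boxes stood in a greenhouse at 25 to 30° C.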

directly sown rice = experiment: Test Example 3: soil treatment, effect on crop; b: directly sown rice; conditions: soil treatment, treatment dosage 320 g/ha
How it was run: as §1

chickweed = experiment: Test Example 3: weedkilling efficacy through soil treatment; N: chickweed; conditions: soil treatment, treatment dosage 320 g/ha
How it was run: as §1

oval-leafed pondweed [1] = experiment: Test Example 2: weedkilling efficacy, growth period weed treatment in the submerged state; C: oval-leafed pondweed; conditions: treatment dosage 320 g/ha
How it was run: (§2)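 Weeds treated at the 1-2 leaf stage by application of diluted emulsion onto floodwater (4 cm depth, alluvial soil) at specified g/ha. Grown in greenhouse at 25 to 30° C; herbicidal effect rated three weeks after treatment.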

wild oat = experiment: Test Example 3: weedkilling efficacy through soil treatment; G: wild oat; conditions: soil treatment, treatment dosage 320 g/ha
How it was run: as §1

bulrush [2] = experiment: Test Example 2: weedkilling efficacy, growth period weed treatment in the submerged state; B: bulrush; conditions: treatment dosage 320 g/ha
How it was run: as §2

Indian mallow = experiment: Test Example 3: weedkilling efficacy through soil treatment; K: Indian mallow; conditions: soil treatment, treatment dosage 320 g/ha
How it was run: as §1

soybean = experiment: Test Example 3: soil treatment, effect on crop; d: soybean; conditions: soil treatment, treatment dosage 320 g/ha
How it was run: as §1

black-grass = experiment: Test Example 3: weedkilling efficacy through soil treatment; H: black-grass; conditions: soil treatment, treatment dosage 320 g/ha
How it was run: as §1

oval-leafed pondweed [3] = experiment: Test Example 1: weedkilling efficacy, preemergent weed treatment in the submerged state; C: oval-leafed pondweed; conditions: treatment dosage 320 g/ha
How it was run: (§3)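 Pots of alluvial soil were flooded to a 4 cm depth. Mixed weed seeds were sown and 2.5 leaf-stage rice seedlings transplanted. On sowing day, water-diluted emulsion was applied to the water surface (dose in g/ha). After 3 weeks at 25–30 °C, effects were rated.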

fig-leafed goosefoot = experiment: Test Example 3: weedkilling efficacy through soil treatment; M: fig-leafed goosefoot; conditions: soil treatment, treatment dosage 320 g/ha
How it was run: as §1

rapeseed = experiment: Test Example 3: soil treatment, effect on crop; g: rapeseed; conditions: soil treatment, treatment dosage 320 g/ha
How it was run: as §1

wheat = experiment: Test Example 3: soil treatment, effect on crop; e: wheat; conditions: soil treatment, treatment dosage 320 g/ha
How it was run: as §1

bulrush [4] = experiment: Test Example 1: weedkilling efficacy, preemergent weed treatment in the submerged state; B: bulrush; conditions: treatment dosage 320 g/ha
How it was run: as §3

crabgrass = experiment: Test Example 3: weedkilling efficacy through soil treatment; D: crabgrass; conditions: soil treatment, treatment dosage 320 g/ha
How it was run: as §1

redroot pigweed = experiment: Test Example 3: weedkilling efficacy through soil treatment; L: redroot pigweed; conditions: soil treatment, treatment dosage 320 g/ha
How it was run: as §1

transplanted rice = experiment: Test Example 1: preemergent weed treatment in the submerged state, effect on crop; a: transplanted rice; conditions: treatment dosage 320 g/ha
How it was run: as §3

catchweed = experiment: Test Example 3: weedkilling efficacy through soil treatment; O: catchweed; conditions: soil treatment, treatment dosage 320 g/ha
How it was run: as §1

barnyard grass [5] = experiment: Test Example 1: weedkilling efficacy, preemergent weed treatment in the submerged state; A: barnyard grass; conditions: treatment dosage 320 g/ha
How it was run: as §3

common wind-grass = experiment: Test Example 3: weedkilling efficacy through soil treatment; J: common wind-grass; conditions: soil treatment, treatment dosage 320 g/ha
How it was run: as §1

Italian ryegrass = experiment: Test Example 3: weedkilling efficacy through soil treatment; I: Italian ryegrass; conditions: soil treatment, treatment dosage 320 g/ha
How it was run: as §1

barnyard grass [6] = experiment: Test Example 3: weedkilling efficacy through soil treatment; F: barnyard grass; conditions: soil treatment, treatment dosage 320 g/ha
How it was run: as §1

green foxtail = experiment: Test Example 3: weedkilling efficacy through soil treatment; E: green foxtail; conditions: soil treatment, treatment dosage 320 g/ha
How it was run: as §1

corn = experiment: Test Example 3: soil treatment, effect on crop; c: corn; conditions: soil treatment, treatment dosage 320 g/ha
How it was run: as §1

barnyard grass [7] = experiment: Test Example 2: weedkilling efficacy, growth period weed treatment in the submerged state; A: barnyard grass; conditions: treatment dosage 320 g/ha
How it was run: as §2

birds-eye speedwell = experiment: Test Example 3: weedkilling efficacy through soil treatment; p: birds-eye speedwell; conditions: soil treatment, treatment dosage 320 g/ha
How it was run: as §1

| SMILES | f: beet, effect on crop grade (beet) | b: directly sown rice, effect on crop grade (directly sown rice) | N: chickweed, weedkilling efficacy grade (chickweed) | C (oval-leafed pondweed) weedkilling efficacy grade (oval-leafed pondweed [1]) | G: wild oat, weedkilling efficacy grade (wild oat) | B (bulrush) weedkilling efficacy grade (bulrush [2]) | K: Indian mallow, weedkilling efficacy grade (Indian mallow) | d: soybean, effect on crop grade (soybean) | H: black-grass, weedkilling efficacy grade (black-grass) | C: oval-leafed pondweed, weed kill grade (oval-leafed pondweed [3]) | M: fig-leafed goosefoot, weedkilling efficacy grade (fig-leafed goosefoot) | g: rapeseed, effect on crop grade (rapeseed) | e: wheat, effect on crop grade (wheat) | B: bulrush, weed kill grade (bulrush [4]) | D: crabgrass, weedkilling efficacy grade (crabgrass) | L: redroot pigweed, weedkilling efficacy grade (redroot pigweed) | a: transplanted rice, effect on crop grade (transplanted rice) | O: catchweed, weedkilling efficacy grade (catchweed) | A: barnyard grass, weed kill grade (barnyard grass [5]) | J: common wind-grass, weedkilling efficacy grade (common wind-grass) | other results |
| --- | --- | --- | --- | --- | --- | --- | --- | --- | --- | --- | --- | --- | --- | --- | --- | --- | --- | --- | --- | --- | --- |
| Cc1nnc(NC(=O)C(C)(C)N2COCN(c3ccccc3)C2=O)s1 [A-1-13] | 1 (weed kill ratio 5% or more, less than 20%) | 3 (weed kill ratio 40% or more, less than 70%) | 3 (weed kill ratio 40% or more, less than 70%) | 3 (weed kill ratio 40% or more, less than 70%) | 3 (weed kill ratio 40% or more, less than 70%) | 5 (weed kill ratio 90% or more, (practically complete withering)) | 0 (weed kill ratio 5% or less (practically no effect)) | 0 (weed kill ratio 5% or less (practically no effect)) | 5 (weed kill ratio 90% or more, (practically complete withering)) | 5 (weed kill ratio 90% or more, (practically complete withering)) | 3 (weed kill ratio 40% or more, less than 70%) | 4 (weed kill ratio 70% or more, less than 90%) | 1 (weed kill ratio 5% or more, less than 20%) | 5 (weed kill ratio 90% or more, (practically complete withering)) | 3 (weed kill ratio 40% or more, less than 70%) | 0 (weed kill ratio 5% or less (practically no effect)) | 3 (weed kill ratio 40% or more, less than 70%) | 0 (weed kill ratio 5% or less (practically no effect)) | 5 (weed kill ratio 90% or more, (practically complete withering)) | 5 (weed kill ratio 90% or more, (practically complete withering)) | I: Italian ryegrass, weedkilling efficacy grade (Italian ryegrass): 5 (weed kill ratio 90% or more, (practically complete withering)); F: barnyard grass, weedkilling efficacy grade (barnyard grass [6]): 3 (weed kill ratio 40% or more, less than 70%); E: green foxtail, weedkilling efficacy grade (green foxtail): 3 (weed kill ratio 40% or more, less than 70%); c: corn, effect on crop grade (corn): 0 (weed kill ratio 5% or less (practically no effect)); A (barnyard grass) weedkilling efficacy grade (barnyard grass [7]): 3 (weed kill ratio 40% or more, less than 70%); P: birds-eye speedwell, weedkilling efficacy grade (birds-eye speedwell): 4 (weed kill ratio 70% or more, less than 90%) |
| COc1cc(F)nc(NC(=O)C(C)(C)N2COCN(c3ccccc3)C2=O)c1 [A-2-23] | 3 (weed kill ratio 40% or more, less than 70%) | 5 (weed kill ratio 90% or more, (practically complete withering)) | 4 (weed kill ratio 70% or more, less than 90%) | 5 (weed kill ratio 90% or more, (practically complete withering)) | 4 (weed kill ratio 70% or more, less than 90%) | 5 (weed kill ratio 90% or more, (practically complete withering)) | 0 (weed kill ratio 5% or less (practically no effect)) | 0 (weed kill ratio 5% or less (practically no effect)) | 5 (weed kill ratio 90% or more, (practically complete withering)) | 5 (weed kill ratio 90% or more, (practically complete withering)) | 4 (weed kill ratio 70% or more, less than 90%) | 4 (weed kill ratio 70% or more, less than 90%) | 0 (weed kill ratio 5% or less (practically no effect)) | 5 (weed kill ratio 90% or more, (practically complete withering)) | 5 (weed kill ratio 90% or more, (practically complete withering)) | 0 (weed kill ratio 5% or less (practically no effect)) | 3 (weed kill ratio 40% or more, less than 70%) | 4 (weed kill ratio 70% or more, less than 90%) | 5 (weed kill ratio 90% or more, (practically complete withering)) | 5 (weed kill ratio 90% or more, (practically complete withering)) | I: Italian ryegrass, weedkilling efficacy grade (Italian ryegrass): 5 (weed kill ratio 90% or more, (practically complete withering)); F: barnyard grass, weedkilling efficacy grade (barnyard grass [6]): 5 (weed kill ratio 90% or more, (practically complete withering)); E: green foxtail, weedkilling efficacy grade (green foxtail): 5 (weed kill ratio 90% or more, (practically complete withering)); c: corn, effect on crop grade (corn): 0 (weed kill ratio 5% or less (practically no effect)); A (barnyard grass) weedkilling efficacy grade (barnyard grass [7]): 5 (weed kill ratio 90% or more, (practically complete withering)); P: birds-eye speedwell, weedkilling efficacy grade (birds-eye speedwell): 5 (weed kill ratio 90% or more, (practically complete withering)) |
| CC(C)(C(=O)Nc1cc(C2CC2)cc(Cl)n1)N1COCN(c2ccccc2)C1=O [A-2-30] | 3 (weed kill ratio 40% or more, less than 70%) | 3 (weed kill ratio 40% or more, less than 70%) | 3 (weed kill ratio 40% or more, less than 70%) | 5 (weed kill ratio 90% or more, (practically complete withering)) | 4 (weed kill ratio 70% or more, less than 90%) | 5 (weed kill ratio 90% or more, (practically complete withering)) | 0 (weed kill ratio 5% or less (practically no effect)) | 0 (weed kill ratio 5% or less (practically no effect)) | 5 (weed kill ratio 90% or more, (practically complete withering)) | 5 (weed kill ratio 90% or more, (practically complete withering)) | 3 (weed kill ratio 40% or more, less than 70%) | 4 (weed kill ratio 70% or more, less than 90%) | 1 (weed kill ratio 5% or more, less than 20%) | 5 (weed kill ratio 90% or more, (practically complete withering)) | 5 (weed kill ratio 90% or more, (practically complete withering)) | 0 (weed kill ratio 5% or less (practically no effect)) | 1 (weed kill ratio 5% or more, less than 20%) | 0 (weed kill ratio 5% or less (practically no effect)) | 5 (weed kill ratio 90% or more, (practically complete withering)) | 5 (weed kill ratio 90% or more, (practically complete withering)) | I: Italian ryegrass, weedkilling efficacy grade (Italian ryegrass): 5 (weed kill ratio 90% or more, (practically complete withering)); F: barnyard grass, weedkilling efficacy grade (barnyard grass [6]): 5 (weed kill ratio 90% or more, (practically complete withering)); E: green foxtail, weedkilling efficacy grade (green foxtail): 5 (weed kill ratio 90% or more, (practically complete withering)); c: corn, effect on crop grade (corn): 0 (weed kill ratio 5% or less (practically no effect)); A (barnyard grass) weedkilling efficacy grade (barnyard grass [7]): 5 (weed kill ratio 90% or more, (practically complete withering)); P: birds-eye speedwell, weedkilling efficacy grade (birds-eye speedwell): 4 (weed kill ratio 70% or more, less than 90%) |

From patent US9738634B2, “Heterocyclic amide compound and herbicide” (SYNGENTA PARTICIPATIONS AG, priority 2013, dated 2017)
